Test results as given in US9309242B2, “Substituted pyrido[2,3-b]pyrazines as FGFR kinase inhibitors” (priority 2011, dated 2016).

Assays:
[1] = target: FGFR2 (h) (Homo sapiens, UniProt P21802); assay: FGFR2 (enzymatic assay), TR-FRET; assay type: biochemical; settings: enzymatic assay; read-out: FGFR 2 pIC50 (converted)
Outline: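 Human FGFR2 (150 ng/ml) was incubated with 500 nM Btn-Flt3 substrate and 0.4 μM ATP in 50 mM HEPES pH 7.5, 6 mM MnCl2, 1 mM DTT, 0.1 mM Na3VO4, 0.01% Triton-X-100. Compound was present at 1% DMSO final.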

[2] = target: T1, Ba/F3-KDR-transfected cells (Homo sapiens, UniProt P35968); assay: Ba/F3-KDR (minus IL3) cellular proliferation assay, Alamar Blue; assay type: cell-based
T1 construct: BAF3-KDR (MIN IL3) pIC50; other: minus IL3
Outline: (§1)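 20000 cells/well, RPMI-1640 + 10% FBS + 2 mM L-Gln; compound 24 h, 37° C/5% CO2; Alamar Blue 4 h; RFU ex540/em590.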

[3] = test system: Ba/F3-KDR-transfected cells; assay: Ba/F3-KDR (plus IL3) cellular proliferation assay, counterscreen with 10 ng/ml murine IL3; assay type: cell-based; settings: plus IL3 (10 ng/ml murine IL3, counterscreen); read-out: BAF3-KDR (PLUS IL3) pIC50 (converted)
Outline: as §1

T1 sequence (P35968 whole entry, change not shown): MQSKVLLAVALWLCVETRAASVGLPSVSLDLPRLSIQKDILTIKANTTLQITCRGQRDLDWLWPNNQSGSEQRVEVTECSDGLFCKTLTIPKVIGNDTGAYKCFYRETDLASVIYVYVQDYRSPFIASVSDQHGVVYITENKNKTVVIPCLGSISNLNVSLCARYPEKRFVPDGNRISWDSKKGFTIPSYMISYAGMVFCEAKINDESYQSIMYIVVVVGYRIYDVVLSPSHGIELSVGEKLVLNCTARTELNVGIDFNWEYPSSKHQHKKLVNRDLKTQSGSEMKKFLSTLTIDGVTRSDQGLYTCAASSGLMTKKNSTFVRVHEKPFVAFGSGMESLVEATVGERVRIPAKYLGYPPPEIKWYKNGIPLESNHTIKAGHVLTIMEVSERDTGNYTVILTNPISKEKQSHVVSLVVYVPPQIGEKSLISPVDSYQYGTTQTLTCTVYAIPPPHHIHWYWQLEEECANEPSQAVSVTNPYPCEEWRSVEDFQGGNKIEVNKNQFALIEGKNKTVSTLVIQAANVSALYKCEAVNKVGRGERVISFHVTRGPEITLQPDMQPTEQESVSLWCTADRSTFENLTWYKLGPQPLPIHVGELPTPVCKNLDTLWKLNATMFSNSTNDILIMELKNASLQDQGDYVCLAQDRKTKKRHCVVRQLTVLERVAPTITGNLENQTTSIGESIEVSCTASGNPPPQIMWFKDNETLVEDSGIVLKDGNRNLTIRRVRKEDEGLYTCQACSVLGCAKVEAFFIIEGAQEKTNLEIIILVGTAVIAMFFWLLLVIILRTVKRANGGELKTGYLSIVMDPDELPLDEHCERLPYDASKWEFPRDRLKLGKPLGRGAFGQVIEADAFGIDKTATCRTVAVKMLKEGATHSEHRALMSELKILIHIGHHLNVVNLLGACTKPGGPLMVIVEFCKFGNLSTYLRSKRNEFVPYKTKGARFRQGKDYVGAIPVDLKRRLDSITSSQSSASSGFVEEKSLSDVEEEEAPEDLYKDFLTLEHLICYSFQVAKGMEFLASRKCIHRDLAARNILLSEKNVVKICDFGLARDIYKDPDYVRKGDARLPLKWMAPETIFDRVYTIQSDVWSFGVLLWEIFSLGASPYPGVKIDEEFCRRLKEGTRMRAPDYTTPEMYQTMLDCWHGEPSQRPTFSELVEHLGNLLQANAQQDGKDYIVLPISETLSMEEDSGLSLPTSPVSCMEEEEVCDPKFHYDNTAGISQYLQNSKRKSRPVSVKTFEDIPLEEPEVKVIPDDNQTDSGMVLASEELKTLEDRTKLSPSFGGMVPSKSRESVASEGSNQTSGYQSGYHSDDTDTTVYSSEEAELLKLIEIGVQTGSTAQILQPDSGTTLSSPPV
Sequence of FGFR2 (h) (P21802 22-821): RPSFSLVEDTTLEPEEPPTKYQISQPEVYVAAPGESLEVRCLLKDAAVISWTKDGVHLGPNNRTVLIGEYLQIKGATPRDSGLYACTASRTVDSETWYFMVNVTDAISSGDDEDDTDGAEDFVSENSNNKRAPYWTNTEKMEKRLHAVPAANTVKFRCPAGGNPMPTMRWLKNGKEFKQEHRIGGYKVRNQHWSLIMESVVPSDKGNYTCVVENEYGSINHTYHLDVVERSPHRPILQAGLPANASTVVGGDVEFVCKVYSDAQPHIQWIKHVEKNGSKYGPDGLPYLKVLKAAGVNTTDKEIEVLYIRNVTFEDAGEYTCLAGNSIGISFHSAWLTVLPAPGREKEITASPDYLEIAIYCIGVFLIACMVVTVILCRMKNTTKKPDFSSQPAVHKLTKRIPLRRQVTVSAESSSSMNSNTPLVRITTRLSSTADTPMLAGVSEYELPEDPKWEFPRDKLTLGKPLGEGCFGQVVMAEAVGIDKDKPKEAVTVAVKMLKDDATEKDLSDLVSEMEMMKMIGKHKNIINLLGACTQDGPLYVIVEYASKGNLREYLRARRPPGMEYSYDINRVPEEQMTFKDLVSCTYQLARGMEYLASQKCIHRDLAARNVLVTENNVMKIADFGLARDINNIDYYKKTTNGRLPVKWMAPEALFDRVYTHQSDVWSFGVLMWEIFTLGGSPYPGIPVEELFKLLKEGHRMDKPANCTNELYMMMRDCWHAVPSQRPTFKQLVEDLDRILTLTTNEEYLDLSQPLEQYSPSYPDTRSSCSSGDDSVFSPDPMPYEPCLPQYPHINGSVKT

Structure (SMILES)	IC50 [1]	BAF3-KDR (MIN IL3) pIC50 [2]	IC50 [3]
COc1ccc(Cl)c(N(CC2CCC(=O)N2)c2ccc3ncc(-c4cnn(C)c4)nc3n2)c1Cl (single isomer, unassigned) [Compound 90]	129 nM	<5	> 10000 nM
COc1cc(OC)c(F)c(N(CCN(C2COC2)C2COC2)c2ccc3ncc(-c4cnn(C)c4)nc3n2)c1F (single isomer, unassigned) [Compound 163]	1.91 nM	6.21	> 10000 nM
COc1cc(OC)c(F)c(N(CC2CCOC2)c2ccc3ncc(-c4cnn(C)c4)nc3n2)c1 (single isomer, unassigned) [Compound 170]	2.14 nM	5.56	> 10000 nM
COc1cc(OC)c(F)c(N(CC(C)(C)O)c2ccc3ncc(-c4cnn(CC(C)(C)O)c4)nc3n2)c1 (single isomer, unassigned) [Compound 208]	5.25 nM	5.57	> 10000 nM
COc1cc(/N=c2\ccc3ncc(-c4cnn(C)c4)nc3n2CC2CCC(=O)N2CCO)c(F)c(OC)c1 (single isomer, unassigned) [Compound 219]	2.24 nM	6.38	> 10000 nM
COc1ccc(Cl)c(N(CC2CCC(=O)N2)c2ccc3ncc(-c4cnn(C)c4)nc3n2)c1Cl (stereo not drawn) [Compound 93]	60.3 nM	<5	> 10000 nM
COc1cc(O)c(F)c(N(Cc2ncc[nH]2)c2ccc3ncc(-c4cnn(C)c4)nc3n2)c1 [Compound 96]	1.58 nM	5.89	> 10000 nM
COc1cc(OC)cc(N(Cc2ncc[nH]2)c2ccc3ncc(-c4cn[nH]c4)nc3n2)c1 [Compound 141]	0.933 nM	5.87	> 10000 nM
COc1cc(OC)cc(N(CC2COC2)c2ccc3ncc(-c4cnn(C)c4)nc3n2)c1 [Compound 142]	7.94 nM	<5	> 10000 nM
COc1cc(/N=c2\ccc3ncc(-c4cnn(C)c4)nc3n2CC2COC2)c(F)c(OC)c1 [Compound 143]	1.51 nM	<5	> 10000 nM
COc1cc(OC)c(F)c(N(CC2COC2)c2ccc3ncc(-c4cnn(C)c4)nc3n2)c1 [Compound 144]	2.82 nM	5.19	> 10000 nM
COc1cc(OC)c(F)c(N(Cc2nccn2CCO)c2ccc3ncc(-c4cnn(C)c4)nc3n2)c1 [Compound 145]	3.8 nM	5.63	> 10000 nM
COc1cc(OC)cc(N(CCN2CCOCC2)c2ccc3ncc(-c4cnn(C)c4)nc3n2)c1 [Compound 146]	4.68 nM	5.28	> 10000 nM
COc1cc(/N=c2\ccc3ncc(-c4cnn(C)c4)nc3n2CCN2CCOCC2)cc(OC)c1 [Compound 147]	2.04 nM	6.17	> 10000 nM
COc1cc(/N=c2\ccc3ncc(-c4cnn(C)c4)nc3n2CCN2CCOCC2)c(F)c(OC)c1 [Compound 148]	1.91 nM	6.26	> 10000 nM
COc1cc(OC)c(F)c(N(CCN2CCOCC2)c2ccc3ncc(-c4cnn(C)c4)nc3n2)c1 [Compound 149]	3.09 nM	5.89	> 10000 nM
COc1cc(OC)cc(N(CCN2CCCC2=O)c2ccc3ncc(-c4cnn(C)c4)nc3n2)c1 [Compound 151]	15.1 nM	<5	> 10000 nM
COc1cc(OC)cc(N(Cc2ncc[nH]2)c2ccc3ncc(-c4ccccc4)nc3n2)c1 [Compound 152]	1.48 nM	5.56	> 10000 nM
COc1cc(/N=c2\ccc3ncc(-c4cnn(C)c4)nc3n2Cc2cn[nH]c2)c(F)c(OC)c1 [Compound 155]	1.2 nM	6.88	> 10000 nM
COc1cc(/N=c2\ccc3ncc(-c4cnn(C)c4)nc3n2CCN2CCCC2=O)c(F)c(OC)c1 [Compound 156]	2.69 nM	5.52	> 10000 nM
COc1cc(OC)c(F)c(N(CCN2CCCC2=O)c2ccc3ncc(-c4cnn(C)c4)nc3n2)c1 [Compound 157]	6.31 nM	5.30	> 10000 nM
COc1cc(/N=c2\ccc3ncc(-c4cnn(C)c4)nc3n2CC2CCC(=O)N2C)c(F)c(OC)c1 (stereo not drawn) [Compound 158]	1.86 nM	6.16	> 10000 nM
COc1cc(OC)c(F)c(N(CC2CCC(=O)N2C)c2ccc3ncc(-c4cnn(C)c4)nc3n2)c1 (stereo not drawn) [Compound 159]	6.61 nM	5.17	> 10000 nM
COc1cc(/N=c2\ccc3ncc(-c4cnn(C)c4)nc3n2CC2CCCOC2)cc(OC)c1 (stereo not drawn) [Compound 165]	2.4 nM	6.30	> 10000 nM

Structure (SMILES)	IC50 [1]	BAF3-KDR (MIN IL3) pIC50 [2]	IC50 [3]
COc1cc(OC)cc(N(CC2CCCOC2)c2ccc3ncc(-c4cnn(C)c4)nc3n2)c1 (stereo not drawn) [Compound 166]	3.16 nM	5.07	> 10000 nM
COc1cc(/N=c2\ccc3ncc(-c4cnn(C)c4)nc3n2CCN)c(F)c(OC)c1 [Compound 167]	2.19 nM	5.63	> 10000 nM
COc1cc(OC)c(F)c(N(CCN)c2ccc3ncc(-c4cnn(C)c4)nc3n2)c1 [Compound 168]	2.04 nM	5.57	> 10000 nM
COc1cc(OC)cc(N(Cc2nc(OC)cc(OC)n2)c2ccc3ncc(-c4cnn(C)c4)nc3n2)c1 [Compound 174]	6.92 nM	<5	> 10000 nM
Cn1cc(-c2cnc3ccc(N(Cc4ncc[nH]4)c4c(F)c(F)cc(F)c4F)nc3n2)cn1 [Compound 175]	1.91 nM	<5	> 10000 nM
COc1cc(OC)c(F)c(N(Cc2ncco2)c2ccc3ncc(-c4cnn(C)c4)nc3n2)c1 [Compound 177]	1.62 nM	5.67	> 10000 nM
COc1cc(OC)c(F)c(N(Cc2c(C)noc2C)c2ccc3ncc(-c4cnn(C)c4)nc3n2)c1 [Compound 178]	7.41 nM	<5	> 10000 nM
COc1cc(/N=c2\ccc3ncc(-c4cnn(C)c4)nc3n2Cc2c(C)noc2C)c(F)c(OC)c1 [Compound 179]	2.57 nM	<5.52	> 3020 nM
COc1cc(OC)c(F)c(N(Cc2cc(C)on2)c2ccc3ncc(-c4cnn(C)c4)nc3n2)c1 [Compound 180]	1.62 nM	5.58	> 10000 nM
COc1cc(/N=c2\ccc3ncc(-c4cnn(C)c4)nc3n2Cc2cc(C)on2)c(F)c(OC)c1 [Compound 181]	2.19 nM	5.97	> 10000 nM
COc1cc(OC)cc(N(Cc2ncc[nH]2)c2ccc3ncc(-c4cccnc4)nc3n2)c1 [Compound 182]	2.04 nM	5.48	> 10000 nM
COc1cc(/N=c2\ccc3ncc(-c4cnn(C)c4)nc3n2Cc2cc(C)no2)c(F)c(OC)c1 [Compound 184]	2.19 nM	6.71	> 10000 nM
COc1cc(OC)c(F)c(N(Cc2cc(C)no2)c2ccc3ncc(-c4cnn(C)c4)nc3n2)c1 [Compound 185]	1.51 nM	5.51	> 10000 nM
COc1cc(OC)c(F)c(N(Cc2ncc[nH]2)c2ccc3ncc(-c4cn[nH]c4)nc3n2)c1 [Compound 190]	1.29 nM	6.46	> 10000 nM
COc1cc(OC)c(F)c(N(Cc2ncc[nH]2)c2ccc3ncc(-c4cccnc4)nc3n2)c1 [Compound 190a]	2.04 nM	5.82	> 10000 nM
COc1cc(OC)c(F)c(N(Cc2cnn(C)c2)c2ccc3ncc(-c4cnn(C)c4)nc3n2)c1 [Compound 195]	2.04 nM	5.79	> 10000 nM
COc1cc(/N=c2\ccc3ncc(-c4cnn(C)c4)nc3n2Cc2cnn(C)c2)c(F)c(OC)c1 [Compound 196]	2.14 nM	7.41	> 10000 nM
COc1cc(OC)cc(N(Cc2nn[nH]n2)c2ccc3ncc(-c4cnn(C)c4)nc3n2)c1 [Compound 197]	11.2 nM	<5	> 10000 nM
COc1cc(OC)cc(N(Cc2ncc[nH]2)c2ccc3ncc(-c4ccn(C)c4)nc3n2)c1 [Compound 198]	1.07 nM	6.68	> 10000 nM
COc1cc(OC)c(F)c(N(Cc2ncc[nH]2)c2ccc3ncc(-c4ccccc4)nc3n2)c1 [Compound 200]	1.7 nM	5.99	> 10000 nM
COc1cc(OC)cc(N(Cc2ncc[nH]2)c2ccc3ncc(-c4ccncc4)nc3n2)c1 [Compound 202]	1.74 nM	5.24	> 10000 nM
COc1cc(OC)cc(N(Cc2nncn2CCO)c2ccc3ncc(-c4cnn(C)c4)nc3n2)c1 [Compound 204]	11 nM	<5	> 10000 nM
COc1cc(OC)cc(N(Cc2ncn(CCO)n2)c2ccc3ncc(-c4cnn(C)c4)nc3n2)c1 [Compound 205]	5.13 nM	5.45	> 10000 nM
